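Each compound was tested at five concentrations against cells in 96-well plates for 48 hours. GI50 marks 50% less growth.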 Activity calls are given as the source filed them. No stated cut-off is given here; in the data, active = GI50 up to about 1.1 µM and inactive = higher.
How the values were obtained:
Test in all cases: NCI anticancer screen, dose series, 48 h
DMS-273 = system: DMS-273
SW-620 = system: SW-620
RXF 631 = system: RXF 631
EKVX = system: EKVX
UACC-62 = system: UACC-62
IGROV-1 = system: IGROV-1
HCT-116 = system: HCT-116
RXF 393 = system: RXF 393
ACHN = system: ACHN
OVCAR-5 = system: OVCAR-5
OVCAR-8 = system: OVCAR-8
K562 = system: K562
RPMI-8226 = system: RPMI-8226
HOP-92 = system: HOP-92
OVCAR-3 = system: OVCAR-3
LXFL 529 = system: LXFL 529
HT-29 = system: HT-29
Malme-3M = system: Malme-3M
KM-20L2 = system: KM-20L2
COLO 205 = system: COLO 205
SK-MEL-2 = system: SK-MEL-2
NCI-H522 = system: NCI-H522
MOLT-4 = system: MOLT-4
SF-268 = system: SF-268
TK-10 = system: TK-10
NCI-H460 = system: NCI-H460
NCI-H23 = system: NCI-H23
U-251 = system: U-251
SK-MEL-5 = system: SK-MEL-5
HCC 2998 = system: HCC 2998
SNB-19 = system: SNB-19
SF-295 = system: SF-295
OVCAR-4 = system: OVCAR-4
KM12 = system: KM12
M19-MEL = system: M19-MEL
A549 = system: A549
M14 = system: M14
UACC-257 = system: UACC-257
DLD-1 = system: DLD-1
HOP-62 = system: HOP-62
CCRF-CEM = system: CCRF-CEM
LOX IMVI = system: LOX IMVI
786-0 = system: 786-0
SNB-78 = system: SNB-78
HCT-15 = system: HCT-15
SF-539 = system: SF-539
UO-31 = system: UO-31
XF498 = system: XF498
SK-MEL-28 = system: SK-MEL-28
SN12C = system: SN12C
HL-60 = system: HL-60
A498 = system: A498
SNB-75 = system: SNB-75
HOP-18 = system: HOP-18
CAKI-1 = system: CAKI-1
SR = system: SR
DMS-114 = system: DMS-114
NCI-H226 = system: NCI-H226
SK-OV-3 = system: SK-OV-3

## O=C(c1ccc(NCN2C(=O)CCC2=O)cc1)c1ccc(NCN2C(=O)CCC2=O)cc1
DMS-273
  GI50: 49.8 µM (inactive)
SW-620
  GI50: 58.5 µM (inactive)
RXF 631
  GI50: > 100 µM (inactive)
EKVX
  GI50: > 100 µM (inactive)
UACC-62
  GI50: > 100 µM (inactive)
IGROV-1
  GI50: > 100 µM (inactive)
HCT-116
  GI50: > 100 µM (inactive)
RXF 393
  GI50: > 100 µM (inactive)
ACHN
  GI50: > 100 µM (inactive)
OVCAR-5
  GI50: > 100 µM (inactive)
OVCAR-8
  GI50: > 100 µM (inactive)
K562
  GI50: 67.3 µM (inactive)
RPMI-8226
  GI50: 20.4 µM (inactive)
HOP-92
  GI50: > 100 µM (inactive)
OVCAR-3
  GI50: > 100 µM (inactive)
LXFL 529
  GI50: > 100 µM (inactive)
HT-29
  GI50: > 100 µM (inactive)
Malme-3M
  GI50: > 100 µM (inactive)
KM-20L2
  GI50: > 100 µM (inactive)
COLO 205
  GI50: > 100 µM (inactive)
SK-MEL-2
  GI50: > 100 µM (inactive)
NCI-H522
  GI50: > 100 µM (inactive)
MOLT-4
  GI50: > 100 µM (inactive)
SF-268
  GI50: > 100 µM (inactive)
TK-10
  GI50: > 100 µM (inactive)
NCI-H460
  GI50: > 100 µM (inactive)
NCI-H23
  GI50: > 100 µM (inactive)
U-251
  GI50: > 100 µM (inactive)
SK-MEL-5
  GI50: > 100 µM (inactive)
HCC 2998
  GI50: > 100 µM (inactive)
SNB-19
  GI50: > 100 µM (inactive)
SF-295
  GI50: > 100 µM (inactive)
OVCAR-4
  GI50: > 100 µM (inactive)
KM12
  GI50: > 100 µM (inactive)
M19-MEL
  GI50: > 100 µM (inactive)
A549
  GI50: > 100 µM (inactive)
M14
  GI50: > 100 µM (inactive)
UACC-257
  GI50: 27.7 µM (inactive)
DLD-1
  GI50: > 100 µM (inactive)
HOP-62
  GI50: > 100 µM (inactive)
CCRF-CEM
  GI50: > 100 µM (inactive)
LOX IMVI
  GI50: > 100 µM (inactive)
786-0
  GI50: > 100 µM (inactive)
SNB-78
  GI50: > 100 µM (inactive)
HCT-15
  GI50: 45.2 µM
SF-539
  GI50: > 100 µM (inactive)
UO-31
  GI50: > 100 µM (inactive)
XF498
  GI50: > 100 µM (inactive)
SK-MEL-28
  GI50: > 100 µM (inactive)
SN12C
  GI50: > 100 µM (inactive)
HL-60
  GI50: 18.9 µM (inactive)

## Cc1ccc(NC(=O)CC2SC(Nc3ccc(Cl)cc3)=NC2=O)cc1C (stereo unspecified)
DMS-273
  GI50: 19.7 µM (inactive)
SW-620
  GI50: 7.08 µM (inactive)
EKVX
  GI50: 17.5 µM (inactive)
A498
  GI50: 23 µM (inactive)
UACC-62
  GI50: 18.3 µM (inactive)
IGROV-1
  GI50: > 46.3 µM (inactive)
SNB-75
  GI50: 17.7 µM (inactive)
HCT-116
  GI50: 18.1 µM (inactive)
RXF 393
  GI50: 17.1 µM (inactive)
ACHN
  GI50: 16.1 µM (inactive)
OVCAR-5
  GI50: 19 µM (inactive)
OVCAR-8
  GI50: 18 µM (inactive)
K562
  GI50: 3.75 µM (inactive)
HOP-18
  GI50: 18.5 µM (inactive)
RPMI-8226
  GI50: 6.47 µM (inactive)
HOP-92
  GI50: 14.4 µM (inactive)
CAKI-1
  GI50: 21.2 µM (inactive)
OVCAR-3
  GI50: 18.9 µM (inactive)
LXFL 529
  GI50: 19.5 µM (inactive)
HT-29
  GI50: 18.2 µM (inactive)
Malme-3M
  GI50: 18.5 µM (inactive)
KM-20L2
  GI50: 19.1 µM (inactive)
COLO 205
  GI50: 13.2 µM (inactive)
SK-MEL-2
  GI50: 12.7 µM (inactive)
NCI-H522
  GI50: 7.85 µM (inactive)
MOLT-4
  GI50: 2.38 µM (inactive)
SF-268
  GI50: 18.3 µM (inactive)
TK-10
  GI50: 17.3 µM (inactive)
NCI-H460
  GI50: 13.5 µM (inactive)
NCI-H23
  GI50: 19 µM (inactive)
U-251
  GI50: 18.5 µM (inactive)
SR
  GI50: 6.59 µM (inactive)
SK-MEL-5
  GI50: 20.3 µM (inactive)
HCC 2998
  GI50: 18.6 µM (inactive)
SNB-19
  GI50: > 78.3 µM (inactive)
SF-295
  GI50: > 44 µM (inactive)
OVCAR-4
  GI50: 20.2 µM (inactive)
KM12
  GI50: 19.9 µM (inactive)
M19-MEL
  GI50: 17.7 µM (inactive)
A549
  GI50: 18.2 µM (inactive)
DMS-114
  GI50: 21 µM (inactive)
M14
  GI50: 16.9 µM (inactive)
UACC-257
  GI50: 15.9 µM (inactive)
DLD-1
  GI50: 18.9 µM (inactive)
HOP-62
  GI50: > 100 µM (inactive)
CCRF-CEM
  GI50: 3.24 µM (inactive)
LOX IMVI
  GI50: 19.4 µM (inactive)
NCI-H226
  GI50: > 47.2 µM (inactive)
786-0
  GI50: 17.8 µM (inactive)
SNB-78
  GI50: 21.1 µM (inactive)
HCT-15
  GI50: 15.2 µM
SF-539
  GI50: 20.8 µM (inactive)
UO-31
  GI50: 18.6 µM (inactive)
SK-MEL-28
  GI50: 19.5 µM (inactive)
SK-OV-3
  GI50: > 49 µM (inactive)
SN12C
  GI50: 17.9 µM (inactive)
HL-60
  GI50: 3.12 µM (inactive)

## Clc1ccc(C(c2ccc(Cl)cc2)c2ccccn2)cc1
SW-620
  GI50: 20.1 µM (inactive)
EKVX
  GI50: 23 µM (inactive)
UACC-62
  GI50: 16.4 µM (inactive)
IGROV-1
  GI50: 37.8 µM (inactive)
SNB-75
  GI50: 44.9 µM (inactive)
RXF 393
  GI50: 14.5 µM (inactive)
ACHN
  GI50: 18.1 µM (inactive)
OVCAR-5
  GI50: 14.9 µM (inactive)
OVCAR-8
  GI50: 16.7 µM (inactive)
K562
  GI50: 21.6 µM (inactive)
HOP-18
  GI50: 24.8 µM (inactive)
RPMI-8226
  GI50: 28.8 µM (inactive)
HOP-92
  GI50: 15.8 µM (inactive)
CAKI-1
  GI50: 23.2 µM (inactive)
OVCAR-3
  GI50: > 10 µM (inactive)
LXFL 529
  GI50: 17.7 µM (inactive)
HT-29
  GI50: 14.9 µM (inactive)
Malme-3M
  GI50: 19.1 µM (inactive)
KM-20L2
  GI50: 14.4 µM (inactive)
SK-MEL-2
  GI50: 19 µM (inactive)
NCI-H522
  GI50: 21.4 µM (inactive)
MOLT-4
  GI50: 21.4 µM (inactive)
SF-268
  GI50: 23.5 µM (inactive)
TK-10
  GI50: 19.7 µM (inactive)
NCI-H460
  GI50: 17.1 µM (inactive)
NCI-H23
  GI50: 31.6 µM (inactive)
U-251
  GI50: 17 µM (inactive)
SR
  GI50: 20.8 µM (inactive)
SK-MEL-5
  GI50: 17.1 µM (inactive)
HCC 2998
  GI50: 15.9 µM (inactive)
SNB-19
  GI50: 22.3 µM (inactive)
SF-295
  GI50: 19.1 µM (inactive)
OVCAR-4
  GI50: 27.4 µM (inactive)
KM12
  GI50: 19.1 µM (inactive)
M19-MEL
  GI50: 31.4 µM (inactive)
A549
  GI50: 18.5 µM (inactive)
DMS-114
  GI50: 28.4 µM (inactive)
M14
  GI50: 21.1 µM (inactive)
UACC-257
  GI50: 18.8 µM (inactive)
DLD-1
  GI50: 20.8 µM (inactive)
CCRF-CEM
  GI50: 21.5 µM (inactive)
LOX IMVI
  GI50: 16.7 µM (inactive)
NCI-H226
  GI50: 17.1 µM (inactive)
786-0
  GI50: 16.7 µM (inactive)
SNB-78
  GI50: 33.8 µM (inactive)
HCT-15
  GI50: 17.3 µM
SF-539
  GI50: 18.7 µM (inactive)
UO-31
  GI50: 16.5 µM (inactive)
XF498
  GI50: 18.2 µM (inactive)
SK-MEL-28
  GI50: > 10 µM (inactive)
SK-OV-3
  GI50: 34.6 µM (inactive)
SN12C
  GI50: 17.3 µM (inactive)
HL-60
  GI50: 20.6 µM (inactive)

Reference: ChEMBL document CHEMBL1201862, “PubChem BioAssay data set” (2004)
